Assay results from ChEMBL document CHEMBL3259799, “New melatonin-N,N-dibenzyl(N-methyl)amine hybrids: potent neurogenic agents with antioxidant, cholinergic, and neuroprotective properties as innovative drugs for Alzheimer's disease” (J Med Chem, 2014).
Activity calls are given as the source filed them. No cut-off for these calls is given here.

Key:
[1] = species: Rattus norvegicus; test: Neurogenic activity in Wistar rat Primary neural stem cells assessed as cell maturation by measuring MAP-2 at 10 uM after 48 hrs by DAPI staining-based immunohistochemistry; assay type: functional
[2] = species: Rattus norvegicus; test: Neurogenic activity in Wistar rat Primary neural stem cells assessed as cell maturation by measuring TuJ1 at 10 uM after 48 hrs by DAPI staining-based immunohistochemistry; assay type: functional
[3] = tested on: SH-SY5Y; test: Neuroprotective activity in human SH-SY5Y cells assessed as protection from rotenone/oligomycin A-induced mitochondrial ROS at 1 uM incubated for 24 hrs prior to rotenone/oligomycin A challenge measured after 24 hrs by LDH assay; assay type: functional
[4] = target: Acetylcholinesterase (Homo sapiens, UniProt P22303)
Acetylcholinesterase, sequence (P22303 whole entry): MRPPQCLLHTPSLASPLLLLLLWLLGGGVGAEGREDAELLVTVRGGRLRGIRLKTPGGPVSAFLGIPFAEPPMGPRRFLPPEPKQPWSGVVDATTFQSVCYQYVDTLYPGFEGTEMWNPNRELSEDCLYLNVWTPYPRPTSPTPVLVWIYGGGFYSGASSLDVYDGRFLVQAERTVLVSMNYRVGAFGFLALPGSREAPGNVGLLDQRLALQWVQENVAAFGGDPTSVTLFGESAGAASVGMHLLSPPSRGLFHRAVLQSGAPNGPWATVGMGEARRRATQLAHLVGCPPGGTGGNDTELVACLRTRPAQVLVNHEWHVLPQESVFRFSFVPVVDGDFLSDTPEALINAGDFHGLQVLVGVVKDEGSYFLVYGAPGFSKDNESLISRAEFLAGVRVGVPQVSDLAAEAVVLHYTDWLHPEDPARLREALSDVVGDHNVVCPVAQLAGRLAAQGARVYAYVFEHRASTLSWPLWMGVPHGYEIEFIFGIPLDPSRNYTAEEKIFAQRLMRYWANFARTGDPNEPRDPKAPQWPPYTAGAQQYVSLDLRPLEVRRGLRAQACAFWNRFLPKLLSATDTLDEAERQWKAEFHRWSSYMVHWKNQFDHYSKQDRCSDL
Description: Inhibition of human recombinant AchE using acetylthiocholine iodide as substrate incubated for 5 mins prior to substrate addition measured after 5 mins by Ellman method

[5] = Antioxidant activity assessed as oxygen radical absorbance capacity after 15 mins fluorescence assay relative to trolox; assay type: functional
[6] = Cytotoxicity against human SH-SY5Y cells assessed as cell viability at 1 uM after 24 hrs by LDH assay relative to control; assay type: cell-based; conditions: read-out: Activity
[7] = Permeability of the compound by PAMPA; assay type: physicochemical; conditions: read-out: permeability
[8] = species: Homo sapiens; test: Inhibition of human BuChE using butyrylthiocholine as substrate at 10 uM incubated for 5 mins prior to substrate addition measured after 5 mins by Ellman method
[9] = tested on: SH-SY5Y; test: Cytotoxicity against human SH-SY5Y cells at 10 uM after 48 hrs by MTT assay relative to control; assay type: cell-based
[10] = tested on: SH-SY5Y; test: Cytotoxicity against human SH-SY5Y cells at 10 uM after 48 hrs by LDH assay relative to control; assay type: cell-based

Row | Compound | Activity [1] | Activity [2] | Activity [3] | IC50 [4] | Activity [5] | viability at 24 h, 1 µM [6] | Papp [7] | inhibition [8] | Activity [9] | Activity [10]
1 | CC(=O)NCCc1c(Cc2ccccc2)[nH]c2ccccc12 | inactive | inactive |  |  |  |  |  |  |  | 
2 | CN(Cc1ccc(C(=O)NCCc2c[nH]c3ccccc23)cc1)Cc1ccccc1Cl |  |  | 12% | 3.8 µM | 2.8 | 100% | 5.8 ×10⁻⁶ cm/s | 38% |  | 
3 | CN(Cc1ccccc1)Cc1ccc(C(=O)NCCc2c[nH]c3ccc(O)cc23)cc1 |  |  | 12% | 4.2 µM | 4.3 | 100% | 5 ×10⁻⁶ cm/s |  |  | 
4 | COc1ccc2c(CCNC(=O)c3ccc(CN(C)Cc4cccc(Cl)c4)cc3)c[nH]c2c1 |  |  | 12% | 2.1 µM | 1.8 | 100% | 7.9 ×10⁻⁶ cm/s | 22% |  | 
5 | COc1ccc2[nH]cc(CCNC(=O)c3ccc(CN(C)Cc4ccccc4)cc3)c2c1 | Active | Active | 36% | 6.1 µM | 2.5 | 100% | 7.1 ×10⁻⁶ cm/s |  | Non-toxic | Non-toxic
6 | COc1ccc2[nH]cc(CCNC(=O)c3ccc(CN(C)Cc4cccc(Cl)c4)cc3)c2c1 |  |  | 12% | 5.6 µM | 2.6 | 100% | 7.9 ×10⁻⁶ cm/s | 38% |  | 
7 | COc1cccc(CN(C)Cc2ccc(C(=O)NCCc3c[nH]c4ccc(OC)cc34)cc2)c1 | Active | Active | 40% | 6.8 µM | 2.5 | 100% | 8.7 ×10⁻⁶ cm/s | 45% | Non-toxic | Non-toxic
8 | COc1ccccc1CN(C)Cc1ccc(C(=O)NCCc2c[nH]c3ccccc23)cc1 | Active | Active | 12% | 4.7 µM | 2.9 | 100% | 8.8 ×10⁻⁶ cm/s |  | Non-toxic | Non-toxic
9 | CN(Cc1ccc(C(=O)NCCc2c[nH]c3ccccc23)cc1)Cc1cccc(Cl)c1 |  |  | 12% | 5.1 µM | 2.9 | 100% | 7.1 ×10⁻⁶ cm/s | 38% |  | 
10 | COc1ccc2[nH]cc(CCNC(=O)c3ccc(CN(C)Cc4ccccc4OC)cc3)c2c1 |  |  | 12% | 5.4 µM | 2.4 | 100% | 9.9 ×10⁻⁶ cm/s | 47% |  | 
11 | COc1ccc2[nH]cc(CCNC(=O)c3ccc(CN(C)Cc4ccccc4Cl)cc3)c2c1 |  |  | 27% | 2.6 µM | 2.5 | 100% | 5.9 ×10⁻⁶ cm/s | 37% |  | 
12 | CN(Cc1ccccc1)Cc1ccc(C(=O)NCCc2c[nH]c3cc(F)ccc23)cc1 |  |  | 12% | 2.5 µM | 2.1 | 100% | 6.6 ×10⁻⁶ cm/s |  |  | 
13 | COc1cccc(CN(C)Cc2ccc(C(=O)NCCc3c[nH]c4ccccc34)cc2)c1 |  |  | 12% | 3.8 µM | 2.7 | 100% | 8.8 ×10⁻⁶ cm/s |  |  | 
14 | COc1ccc2[nH]cc(CCNC(C)=O)c2c1 | Active | Active |  |  | 2.4 |  |  |  |  | 
15 | COc1ccc2c(CCNC(=O)c3ccc(CN(C)Cc4ccccc4)cc3)c[nH]c2c1 |  |  | 12% | 4.1 µM | 1.5 | 100% | 7.2 ×10⁻⁶ cm/s |  |  | 
16 | CN(Cc1ccccc1)Cc1ccc(C(=O)NCCc2c[nH]c3ccccc23)cc1 |  |  | 12% | 1.9 µM | 3.2 | 100% | 7.4 ×10⁻⁶ cm/s |  |  | 
